The METLIN SMRT retention time set (Domingo-Almenara et al. 2019)

Assay: gradient 5% acetonitrile 3 min, to 50% in 2 min, to 85% in 15 min, held 3 min, 100 µL/min
Settings: column: Zorbax Extend-C18 2.1 x 50 mm; eluents: water / acetonitrile, 0.1% formic acid
Summary of the method: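 Values are retention times taken from adduct peaks that software picked and an analyst inspected. The pure standards were run as mixtures of ~100 molecules on HPLC linked to a quadrupole time-of-flight mass spectrometer, in positive and negative ionization mode. A Zorbax Extend-C18 column (2.1 × 50 mm, 1.8 μm) was used at 100 μL/min with water and acetonitrile, each including 0.1% formic acid.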

Compound | RP-LC retention time [s]
CCn1cc(S(=O)(=O)N2C[C@@H](C(=O)NC)[C@H](c3n[nH]c(C)n3)C2)cn1 | 577
O=c1c2ccccc2nc2n1CCCC2 | 653
CCN1CCN(Cc2ccc(C(=O)NCc3ccccc3C(F)(F)F)cc2)C(=O)C1=O | 721
Cc1ccc(N2CCN(S(=O)(=O)c3cc(-c4nnc(C5CCC5)o4)co3)CC2)cc1 | 1110
COc1ccc(NC(=O)Cn2nc3c(Oc4cccc(Cl)c4)nccn3c2=O)cc1 | 859
Cc1nc(-c2nnn(-c3ccccc3)c2C)no1 | 769
COc1ccc(-c2nc3ncccn3c2Nc2ccc3c(c2)OCCO3)cc1 | 674
N#Cc1ccc(C(=O)Nc2cnc(-c3ccc(Cl)cc3)nc2)cc1 | 1070
CC(C)OCCCNC(=O)C1CCN(c2ncnc3c2oc2ccccc23)CC1 | 662
CCc1cc(C(=O)Nc2cccc(C#N)c2)nc2ccnn12 | 939
Cc1cccc(CCNC(=O)Cc2csc3nc(-c4ccc(C)c(C)c4)cn23)c1 | 911
O=C(CCc1nc(-c2ccc(N3CCCCC3)cc2)no1)NCCC1=CCCCC1 | 1090
CCC(C)NC(=O)N1CCN(Cc2nc3cccnc3n2-c2cc(C)cc(C)c2)CC1 (stereo not given) | 672
Cc1cc(NS(=O)(=O)c2cc3n(c2)CCN(C(C)C)C3=O)ccc1F | 1320
O=C(NCc1cccs1)C1CCCN(S(=O)(=O)c2c[nH]c(C(=O)N3CCCCCC3)c2)C1 (stereo not given) | 812
Cc1cc(C)n2c(Nc3ccc4c(c3)OCCO4)c(-c3ccc(Cl)cc3)nc2n1 | 746
CCOc1ccc(CCNC(=O)c2cc3sc(Cl)cc3n2C)cc1OCC | 1110
CCNc1cc(N2CCCC(CCC(=O)N3CCC(C(=O)OCC)CC3)C2)ncn1 (stereo not given) | 646
CSc1nnc(-c2nn(C)c3c2CN(C(=O)c2ccc(Cl)cc2)CC3)n1C | 736
CN(c1nccn2c(=O)n(CC(=O)Nc3cc(F)ccc3F)nc12)C1CCCCC1 | 786
Cn1c(=O)c2nscc2n(CC(=O)NC2CCCCC2)c1=O | 664
CCOC(=O)Cc1ccc(NC(=O)NC2CCN(c3ccc(F)c(C)c3)C2=O)cc1 (stereo not given) | 853
Cc1ccc(CNC(=O)C(=O)NCCO)cc1 | 600
CC(=O)N1CCc2ccccc2C1C(=O)NCc1cccc(C(F)(F)F)c1 (stereo not given) | 838
Cc1cnc(Nc2ccc(OCCN3CCCC3)cc2)nc1Nc1cccc(S(=O)(=O)NC(C)(C)C)c1 | 619

Compound | RP-LC retention time [s]
CCOC(=O)N1CCN(c2ncc(C(=O)Nc3ccc(OC)cc3)c(N)n2)CC1 | 679
C#CCOCC1CCCN(S(=O)(=O)Cc2ccccc2)C1 (stereo not given) | 840
Cn1cnc(S(=O)(=O)N2CCC(C(=O)Nc3cccc(C#N)c3)CC2)c1 | 674
O=C(Cn1cnc(-c2noc(-c3ccncc3)n2)c1)N1CCc2ccccc21 | 634
CCOC(=O)c1cnc2nc(C)ccc2c1Nc1ccc(O)cc1 | 618
CC(C)c1nc(-n2cccc2)sc1C(=O)NCCCN1CCCCC1 | 719
COc1ccc(S(=O)(=O)N2CCCC(Cn3c(C)nc4cccnc43)C2)cc1 (stereo not given) | 688
CC1CCCCN1CCCNC(=O)CN1C(=O)c2ccccc2Sc2ncccc21 (stereo not given) | 661
Cc1cc(NC(=O)Nc2ccc3c(ccn3C)c2)sn1 | 736
C=CCn1c(=O)c2ccccc2n(Cc2nc(-c3ccc(OC(C)C)cc3)no2)c1=O | 1130
Cn1cnc(S(=O)(=O)N2CCCC(c3[nH]ccc3C(N)=O)C2)c1 (stereo not given) | 586
Cc1noc(C2CCCCN2Cc2nc(-c3ccccn3)no2)n1 (stereo not given) | 639
COc1ccc(-c2ccnc3nc(-c4ccco4)nn23)c(F)c1 | 819
Cc1nc(C)c(C(=O)Nc2nc(-c3cccc(Cl)c3)c(C)s2)s1 | 1070
COc1ccc(Cl)cc1NC(=O)N1C[C@@H](F)C[C@H]1C(=O)N1CCc2ccccc2C1 | 933
CCn1cnc(S(=O)(=O)N2CCCC(C(=O)Nc3ccc(C)cc3)C2)c1 (stereo not given) | 748
Cn1cc(-c2cc3n(n2)CCCN3C(=O)CCC(=O)NC2CCCCCC2)c2ccccc21 | 869
O=C(CN1C(=O)c2ccccc2C1=O)Nc1nnc(-c2ccc3c(c2)OCCO3)o1 | 678
Cc1nc(-c2ccc(C(=O)NCc3cccnc3)cc2)cs1 | 612
O=C(c1ccc(Cn2cncn2)cc1)N1CCN(c2ccc(Cl)cc2)CC1 | 774
Cn1c(=O)c(N2CCC(C(=O)NCc3cccs3)CC2)nc2ccccc21 | 805
CCc1ccc(Oc2cc(N3CCC(C(=O)NCCc4cccnc4)CC3)ncn2)cc1 | 657
CCOC(=O)N1CCN(c2cc(-c3nc(-c4cccc(F)c4)no3)c3ccccc3n2)CC1 | 1420
Nc1ncnc2c1nc(Br)n2C1O[C@H]2COP(=O)(O)O[C@@H]2[C@@H]1O (stereo not given in full) | 549
Cc1ccccc1CN1CCN(c2ccccn2)CC1 | 566

Second part, the compound after the results:

RP-LC retention time [s] | Compound
1110 | Cc1cc(-c2csc(S(=O)(=O)N(Cc3ccco3)C3CCCC3)c2)on1
740 | O=C(CN1CCN(c2ccccc2)CC1)Nc1nc(-c2ccccc2)cs1
1010 | COc1ccccc1NC(=O)N1CCCC1c1nc(-c2ccccc2)no1 (stereo not given)
949 | COc1ccc(-c2nnc(Cc3nc(-c4ccccc4)no3)o2)cc1OC
721 | O=C1CCN(C(=O)C2(c3ccccc3)CC2)CCCCCCN1
691 | Cc1nc2cc(-c3noc(-c4ccc(C#N)cc4)n3)ccc2n(C2CCCC2)c1=O
566 | O=C(N[C@@H]1CN(C2CCOCC2)C[C@H]1CO)c1ccc2c(c1)OCO2
659 | O=C(Cn1cnc2c(nc3n2CCCCC3)c1=O)Nc1ccc2c(c1)OCCO2
643 | O=C(NCC1CC1)C1CCCN(c2cnc3nccnc3c2)C1 (stereo not given)
792 | COC(=O)c1c(NCCC(C)C)c2cc(F)ccc2[nH]c1=O
907 | CC(NC(=O)Nc1ccccc1C(F)(F)F)C(=O)N1CCc2ccccc21 (stereo not given)
912 | CCc1nc2cc(-c3noc(-c4cccnc4)n3)ccc2o1
761 | Cc1cc(F)ccc1NC(=O)C1CCCN1S(=O)(=O)c1cc2c(cc1C)NC(=O)CO2 (stereo not given)
740 | O=C(NCCc1c[nH]c2ccccc12)c1csc(NS(=O)(=O)c2cccs2)n1
922 | O=C1CCCc2nc(Nc3nc(-c4ccccc4)c4cc(Cl)ccc4n3)ncc21
732 | Cc1noc2ncn(CC(=O)Nc3ccccc3F)c(=O)c12
719 | O=C(c1ccncc1)N1CCCn2nc(-c3ccc(Cl)cc3)cc2C1
655 | Cc1ccn2cc(-c3ccc(NC(=O)c4ccc([N+](=O)[O-])cc4)cc3)nc2n1
982 | Cn1c(=O)n(C)c2cc(S(=O)(=O)C3CCCCC3)c(NC(=O)c3ccccc3)cc21
706 | CCC(NC(=O)C1CCN(c2cncnc2N2CCCCC2)CC1)c1cccs1 (stereo not given)

RP-LC retention time [s] | Compound
657 | COc1ccc(C2C(C(=O)O)c3ccccc3C(=O)N2C)cc1OC (stereo not given)
680 | O=C(CSc1ccc(N2CCCC(C(=O)NC3CC3)C2)nn1)Nc1cc(F)cc(F)c1 (stereo not given)
1040 | Cn1c(=O)n(C)c2cc(N3CCCCC3)c(NC(=O)COc3ccc(Cl)cc3)cc21
959 | O=C(Nc1ccc(Cl)cc1)C1CCCN(S(=O)(=O)c2c[nH]c(C(=O)N3CCCCCC3)c2)C1 (stereo not given)
886 | COc1ccc(C(=O)N2CCC3(CC2)N=C(c2ccc(Br)cc2)NO3)c(OC)c1
864 | Cc1c(Cl)cccc1NC(=O)N1C[C@@H](F)C[C@H]1C(=O)N1CCc2ccccc2C1
925 | O=C(NCc1cc(F)cc(F)c1)c1ccc(-c2cccs2)nc1
1050 | O=C(Nc1cnc(-c2ccccc2)nc1)c1ccc(Cl)cc1
664 | CCc1cc(C(=O)N2CCN(CC)CC2)nc2cc(-c3ccsc3)nn12
896 | CCOc1ccccc1N1CCN(S(=O)(=O)c2nn(CC)cc2C(=O)NCC(=O)OC)CC1
945 | Cc1ccccc1-c1noc(CCn2nc(-c3ccc4c(c3)OCO4)ccc2=O)n1
613 | C=CCNC(=O)C1CCN(Cc2noc(-c3ccc(F)cc3)n2)CC1
745 | Cc1ccc(S(=O)(=O)N2CCC3(CC2)NCCN=C3NCc2cccc(F)c2)cc1C
843 | O=C(NCc1ccc(Cl)cc1)c1ccc(NC(=O)C2CC2)cc1N1CCOCC1
630 | Cc1ccc(Cn2cc(-c3ccncc3)cc2C(=O)NCc2ccc(N(C)C)cc2)cc1
653 | CCCCN1CCN(Cc2nc(-c3ccc(N4CCSCC4)nc3)no2)CC1
649 | CCNC(=O)C(=O)NCC(c1ccc2c(c1)CCCN2C)N1CCCCC1 (stereo not given)
659 | Cc1cccc(S(=O)(=O)Nc2ccc(-c3cn4cccc(C)c4n3)cc2)c1
1070 | CC(C)Cn1c(=O)c(C(=O)NCc2ccccc2C(F)(F)F)nc2cccnc21
748 | O=S(=O)(NCc1ccc(F)cc1Cl)c1c[nH]c2ncccc12
